Target: T1, C5a receptor (Homo sapiens, UniProt P21730)
T1 construct: endogenous in cells; host or cells: U937 cells differentiated with 1 mM dibutyryl cAMP
T1 sequence (P21730 1-350): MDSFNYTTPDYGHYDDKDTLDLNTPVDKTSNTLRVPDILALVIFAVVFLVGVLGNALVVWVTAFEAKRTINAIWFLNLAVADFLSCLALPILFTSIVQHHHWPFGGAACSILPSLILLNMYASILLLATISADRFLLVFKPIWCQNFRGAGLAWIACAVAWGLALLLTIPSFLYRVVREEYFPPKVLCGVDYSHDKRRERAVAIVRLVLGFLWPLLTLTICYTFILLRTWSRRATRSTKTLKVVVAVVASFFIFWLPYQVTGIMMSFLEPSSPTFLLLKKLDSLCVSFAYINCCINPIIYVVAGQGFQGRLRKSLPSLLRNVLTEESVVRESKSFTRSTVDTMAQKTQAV
Assay: standard assay of C5a receptor mediated calcium mobilization
Type: cell-based
Conditions: Table I; asterisk = tested in C5a receptor mediated calcium mobilization assay; read-out: Ca2+ Mob.
Description: U937 cells are grown in differentiation media (1 mM dibutyrl cAMP in RPMI 1640 medium containing 10% fetal bovine serum) for 48 hrs at 37° C. then reseeded onto 96-well plates suitable for use in a FLIPR™ Plate Reader (Molecular Devices Corp., Sunnyvale Calif.). Cells are grown an additional 24 hours (to 70-90% confluence) before the assay. The cells are then washed once with Krebs Ringer solution. FLUO-3 calcium sensitive dye (Molecular Probes, Inc. Eugene, Oreg.) is added to 10 μg/mL and incubated with the cells at room temperature for 1 to 2 hours. The 96 well plates are then washed to remove excess dye. Fluorescence responses, measured by excitation at 480 nm and emission at 530 nm, are monitored upon the addition of human C5a to the cells to a final concentration of 0.01-30.0 nM, using the FLIPR™ device (Molecular Devices).
The calcium mobilization assay described above may be readily adapted for identifying test compounds that have agonist or antagonist activity at the human C5a receptor.
For example, in order to identify antagonist compounds, differentiated U937 cells are washed and incubated with Fluo-3 dye as described above. One hour prior to measuring the fluorescence signal, a subset of the cells is incubated with 1 μM of at least one compound to be tested. The fluorescence response upon the subsequent addition of 0.3 nM (final concentration) human recombinant C5a is monitored using the FLIPR™ plate reader. Antagonist compounds elicit at least a 2-fold decrease in the fluorescence response relative to that measured in the presence of human C5a alone. Preferred antagonist compounds elicit at least a 5-fold, preferably at least a 10-fold, and more preferably at least a 20-fold decrease in the fluorescence response relative to that measured in the presence of human C5a alone.

| Structure (SMILES) | Ki |
| --- | --- |
| COc1ccc2c(c1)CC(N(Cc1ccccc1)C(=O)c1ccccc1-c1ccccc1)C2 (stereo not drawn) [compound 71, N-benzyl-N-(5-methoxy-indan-2-yl)-1,1′-biphenyl-2-carboxamide] | < 1 µM |
| Cc1ccc2c(c1)CC(N(Cc1ccccc1)C(=O)c1ccccc1-c1ccccc1)C2 (stereo not drawn) [compound 72, N-benzyl-N-(5-methyl-indan-2-yl)-1,1′-biphenyl-2-carboxamide] | < 1 µM |
| Cc1ccccc1CN(C(=O)c1ccccc1-c1ccccc1)C1Cc2ccccc2C1 [compound 73, N-(indan-2-yl)-N-(2-methylbenzyl)-1,1′-biphenyl-2-carboxamide] | < 1 µM |
| Cc1cccc(CN(C(=O)c2ccccc2-c2ccccc2)C2Cc3ccccc3C2)c1 [compound 74, N-(indan-2-yl)-N-(3-methylbenzyl)-1,1′-biphenyl-2-carboxamide] | < 1 µM |
| Cc1ccc(CN(C(=O)c2ccccc2-c2ccccc2)C2Cc3ccccc3C2)cc1 [compound 75, N-(indan-2-yl)-N-(4-methylbenzyl)-1,1′-biphenyl-2-carboxamide] | < 1 µM |
| O=C(c1ccccc1-c1ccccc1)N(Cc1ccc(F)cc1)C1Cc2ccccc2C1 [compound 76, N-(indan-2-yl)-N-(4-fluorobenzyl)-1,1′-biphenyl-2-carboxamide] | < 1 µM |
| O=C(c1ccccc1-c1ccccc1)N(Cc1cccc(F)c1)C1Cc2ccccc2C1 [compound 77, N-(indan-2-yl)-N-(3-fluorobenzyl)-1,1′-biphenyl-′-carboxamide] | < 1 µM |
| O=C(c1ccccc1-c1ccccc1)N(Cc1ccccc1F)C1Cc2ccccc2C1 [compound 78, N-(indan-2-yl)-N-(2-fluorobenzyl)-1,1′-biphenyl-2-carboxamide] | < 1 µM |
| O=C(c1ccccc1-c1ccccc1)N(Cc1ccc2c(c1)OCO2)C1Cc2ccccc2C1 [compound 79, N-(1,3-benzodioxol-5-ylmethyl)-N-(indan-2-yl)-1,1′-biphenyl-2-carboxamide] | < 1 µM |
| O=C(c1ccccc1-c1ccccc1)N(Cc1ccc(F)c(F)c1)C1Cc2ccccc2C1 [compound 80, N-(3,4-difluorobenzyl)-N-(indan-2-yl)-1,1′-biphenyl-2-carboxamide] | < 1 µM |
| COc1ccccc1CN(C(=O)c1ccccc1-c1ccsc1)C1Cc2ccccc2C1 [compound 81, N-(indan-2-yl)-N-(2-methoxybenzyl)-2-thien-3-ylbenzamide] | < 1 µM |
| COc1ccccc1CN(C(=O)c1ccccc1-c1ccccc1F)C1Cc2ccccc2C1 [compound 82, N-(indan-2-yl)-2′-fluoro-N-(2-methoxybenzyl)-1,1′-biphenyl-2-carboxamide] | < 1 µM |
| COc1ccc(CN(C(=O)c2ccccc2-c2ccsc2)C2Cc3ccccc3C2)cc1 [compound 83, N-(indan-2-yl)-N-(4-methoxybenzyl)-2-thien-3-ylbenzamide] | < 1 µM |
| COc1cc(CN(C(=O)c2ccccc2-c2ccsc2)C2Cc3ccccc3C2)cc(OC)c1 [compound 84, N-(indan-2-yl)-N-(3,5-dimethoxybenzyl)-2-thien-3-ylbenzamide] | < 1 µM |
| O=C(c1ccccc1-c1ccsc1)N(Cc1cccc(-c2ccsc2)c1)C1Cc2ccccc2C1 [compound 85, N-(indan-2-yl)-2-thien-3-yl-N-(3-thien-3-ylbenzyl)benzamide] | < 1 µM |
| O=C(c1ccccc1-c1ccsc1)N(Cc1ccc2ccccc2c1)C1Cc2ccccc2C1 [compound 86, N-(indan-2-yl)-N-(2-naphthylmethyl)-2-thien-3-ylbenzamide] | < 1 µM |
| O=C(c1ccccc1-c1ccccc1F)N(Cc1ccccc1)Cc1ccccc1 [compound 87, N,N-dibenzyl-2′-fluoro-1,1′-biphenyl-2-carboxamide] | < 1 µM |

| Structure (SMILES) | Ki |
| --- | --- |
| Cc1ccc(CN(C(=O)c2ccccc2-c2ccc(C)cc2)C2Cc3ccccc3C2)cc1 [compound 88, N-(indan-2-yl)-4′-methyl-N-(4-methylbenzyl)-1,1′-biphenyl-2-carboxamide] | < 1 µM |
| COc1cccc(-c2ccccc2C(=O)N(Cc2ccc(C)cc2)C2Cc3ccccc3C2)c1 [compound 89, N-(indan-2-yl)-3′-methoxy-N-(4-methylbenzyl)-1,1′-biphenyl-2-carboxamide] | < 1 µM |
| Cc1ccc(CN(C(=O)c2ccccc2-c2ccccc2F)C2Cc3ccccc3C2)cc1 [compound 90, N-(indan-2-yl)-2′-fluoro-N-(4-methylbenzyl)-1,1′-biphenyl-2-carboxamide] | < 1 µM |
| Cc1ccc(-c2ccccc2C(=O)N(Cc2ccc(F)cc2)C2Cc3ccccc3C2)cc1 [compound 91, N-(indan-2-yl)-N-(4-fluorobenzyl)-4′-methyl-1,1′-biphenyl-2-carboxamide] | < 1 µM |
| COc1cccc(-c2ccccc2C(=O)N(Cc2ccc(F)cc2)C2Cc3ccccc3C2)c1 [compound 92, N-(indan-2-yl)-N-(4-fluorobenzyl)-3′-methoxy-1,1′-biphenyl-2-carboxamide] | < 1 µM |
| O=C(c1ccccc1-c1ccccc1F)N(Cc1ccc(F)cc1)C1Cc2ccccc2C1 [compound 93, N-(indan-2-yl)-2′-fluoro-N-(4-fluorobenzyl)-1,1′-biphenyl-2-carboxamide] | < 1 µM |
| Cc1ccc(-c2ccccc2C(=O)N(Cc2ccccc2F)C2Cc3ccccc3C2)cc1 [compound 94, N-(indan-2-yl)-N-(2-fluorobenzyl)-4′-methyl-1,1′-biphenyl-2-carboxamide] | < 1 µM |
| Cc1ccc(-c2ccccc2C(=O)N(Cc2cccc(F)c2)C2Cc3ccccc3C2)cc1 [compound 95, N-(indan-2-yl)-N-(3-fluorobenzyl)-4′-methyl-1,1′-biphenyl-2-carboxamide] | < 1 µM |
| O=C(c1ccccc1-c1ccccc1F)N(Cc1cccc(F)c1)C1Cc2ccccc2C1 [compound 96, N-(indan-2-yl)-2′-fluoro-N-(3-fluorobenzyl)-1,1′-biphenyl-′-carboxamide] | < 1 µM |
| Cc1ccc(-c2ccccc2C(=O)N(Cc2cccc(C)c2)C2Cc3ccccc3C2)cc1 [compound 97, N-(indan-2-yl)-4′-methyl-N-(3-methylbenzyl)-1,1′-biphenyl-2-carboxamide] | < 1 µM |
| COc1cccc(-c2ccccc2C(=O)N(Cc2cccc(C)c2)C2Cc3ccccc3C2)c1 [compound 98, N-(indan-2-yl)-3′-methoxy-N-(3-methylbenzyl)-1,1′-biphenyl-2-carboxamide] | < 1 µM |
| Cc1cccc(CN(C(=O)c2ccccc2-c2ccccc2F)C2Cc3ccccc3C2)c1 [compound 99, N-(indan-2-yl)-2′-fluoro-N-(3-methylbenzyl)-1,1′-biphenyl-2-carboxamide] | < 1 µM |
| Cc1ccc(-c2ccccc2C(=O)N(Cc2ccccc2C)C2Cc3ccccc3C2)cc1 [compound 100, N-(indan-2-yl)-4′-methyl-N-(2-methylbenzyl)-1,1′-biphenyl-2-carboxamide] | < 1 µM |
| COc1cccc(CN(C(=O)c2c(OC)cccc2-c2ccccc2)C2Cc3ccccc3C2)c1 [compound 101, N-(indan-2-yl)-3-methoxy-N-(3-methoxybenzyl)-1,1′-biphenyl-2-carboxamide] | < 1 µM |
| COc1cccc(CN(C(=O)c2cc(OC)ccc2-c2ccc(C)s2)C2Cc3ccccc3C2)c1 [compound 102, N-(indan-2-yl)-5-methoxy-N-(3-methoxybenzyl)-2-(5-methylthien-2-yl)benzamide] | < 1 µM |
| COc1cccc(CN(C(=O)c2cc(OC)ccc2-c2ccccc2)C2Cc3ccccc3C2)c1 [compound 103, N-(indan-2-yl)-4-methoxy-N-(3-methoxybenzyl)-1,1′-biphenyl-2-carboxamide] | < 1 µM |

Reference: US7291621B2, “Substituted biaryl amides C5a receptor modulators” (Neurogen Corporation, priority 2002, dated 2007)
